Common to all, as to format: biochemical
Test [1] deals with T1, aggrecanase-1 (Homo sapiens, UniProt O75173).
T1 sequence (O75173 213-837): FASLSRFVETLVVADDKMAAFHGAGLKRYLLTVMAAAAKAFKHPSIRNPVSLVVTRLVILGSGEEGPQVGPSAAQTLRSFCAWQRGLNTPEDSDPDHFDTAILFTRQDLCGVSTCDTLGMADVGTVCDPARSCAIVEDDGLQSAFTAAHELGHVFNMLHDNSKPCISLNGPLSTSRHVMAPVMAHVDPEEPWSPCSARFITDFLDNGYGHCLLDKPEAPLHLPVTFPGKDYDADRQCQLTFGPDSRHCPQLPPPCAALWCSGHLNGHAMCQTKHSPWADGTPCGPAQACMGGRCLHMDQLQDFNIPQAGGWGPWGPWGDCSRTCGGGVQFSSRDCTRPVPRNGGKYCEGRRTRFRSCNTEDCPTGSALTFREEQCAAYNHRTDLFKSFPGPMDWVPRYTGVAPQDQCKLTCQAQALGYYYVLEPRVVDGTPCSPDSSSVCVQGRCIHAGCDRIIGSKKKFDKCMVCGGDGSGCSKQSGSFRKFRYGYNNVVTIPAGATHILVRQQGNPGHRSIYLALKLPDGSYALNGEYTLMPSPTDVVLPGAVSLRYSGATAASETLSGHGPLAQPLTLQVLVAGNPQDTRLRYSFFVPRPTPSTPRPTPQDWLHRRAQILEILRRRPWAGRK
Put plainly: Aggrecanase-1 inhibitory action (Particle Assay, GAG release from aggrecan-containing polyacrylamide particles). The settings on record: Experimental Example 1; read-out: IC50 AG1. The method, boiled down: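 Enzyme and compound incubated with aggrecan-containing polyacrylamide particles in Tris-HCl buffer at 37° C for 15 h. Released GAG in supernatant measured with 1,9-dimethylmethylene blue at 595 nm against chondroitin sulfate standard; % inhibition from enzyme-free and inhibitor-free wells, reported as TC50 (μM).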

The target in test [2] is T2, Recombinant Human MMP-13 (Homo sapiens, UniProt P45452).
T2 construct: purchased R&D systems 511-MM
The test is described as follows: MMP-13 inhibitory activity (MMP-13 specific fluorescent substrate with quencher). The settings on record: Experimental Example 3; read-out: IC50 MMP13. The essentials:
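Recombinant human MMP-13 with test compound, reaction started with quenched fluorogenic peptide 7-MCA-Pro-CHA-Gly-NVal-His-Ala-DPA in Tris-HCl buffer, 1 h at 25 °C, stopped with acetic acid. Fluorescence at Ex 325/Em 405 nm; % inhibition versus enzyme-free and inhibitor-free wells, reported as IC50 (μM).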

In test [3] the target is T3, MMP-1 (Homo sapiens, UniProt P03956).
T3 sequence (P03956 100-469): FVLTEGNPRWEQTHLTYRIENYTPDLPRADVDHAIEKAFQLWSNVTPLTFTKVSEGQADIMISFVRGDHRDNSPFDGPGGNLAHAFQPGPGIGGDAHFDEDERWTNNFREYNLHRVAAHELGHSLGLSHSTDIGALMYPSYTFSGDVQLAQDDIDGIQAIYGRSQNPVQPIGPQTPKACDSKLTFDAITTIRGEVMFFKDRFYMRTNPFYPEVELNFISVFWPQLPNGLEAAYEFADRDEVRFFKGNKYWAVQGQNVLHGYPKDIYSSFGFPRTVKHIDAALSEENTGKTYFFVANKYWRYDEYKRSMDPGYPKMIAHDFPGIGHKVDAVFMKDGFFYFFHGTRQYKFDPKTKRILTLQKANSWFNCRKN
Put plainly: MMP-1 inhibitory action (Type I collagen Activity Measurement kit, FITC-labeled collagen type I). The following applies: Experimental Example 2; read-out: IC50 MMP1.

Where only a bound is given, the exact number is not on record here.

The term IC50 denotes the concentration at which inhibition is half-maximal.

Consider `Cc1cn(-c2ccc(S(=O)(=O)N[C@@]3(C(=O)O)C(C)[C@@H]3c3ccccc3)s2)cn1` (stereo partly drawn) [Example 2-367], for which the IC50 in test [1] is at least 1000 nM; in test [2] it was at least 1000 nM; in test [3], at least 10000 nM.

On to `O=C(NCC1(c2ccccc2)CC1(NS(=O)(=O)c1ccc(-c2ccc(Cl)cc2)s1)C(=O)O)c1ccccn1` (stereo not drawn) [Example 2-368], for which the concentration for half-maximal inhibition (IC50) in test [1] was below 1000 nM; in test [2], below 1000 nM; in test [3] it was at least 1000 nM.

In the case of `O=C(O)C1(NS(=O)(=O)c2ccc(-c3ccc(Cl)cc3)s2)C2CCOc3ccccc3C21` (stereo not drawn) [Example 2-369], the IC50 in test [1] was below 100 nM; in test [2], below 100 nM; in test [3], at least 1000 nM.

As for `O=C(O)C1(NS(=O)(=O)c2ccc(-c3cc(C(F)(F)F)on3)s2)C2CCOc3ccccc3C21` (stereo not drawn) [Example 2-370], the IC50 was below 100 nM in test [1], below 100 nM in test [2] and below 1000 nM in test [3].

Turning to `O=C(O)[C@]1(NS(=O)(=O)c2ccc(-c3cc(C(F)(F)F)on3)o2)C[C@@H]1c1ccccc1` [Example 2-371], the IC50 was at least 1000 nM in test [1], at least 1000 nM in test [2] and at least 10000 nM in test [3].

Regarding `CC1[C@H](c2ccccc2)[C@]1(NS(=O)(=O)c1ccc(-c2cc(C(F)(F)F)on2)o1)C(=O)O` (stereo partly drawn) [Example 2-372], the results for the IC50 in test [1], in test [2] and in test [3] were at least 1000 nM, at least 1000 nM and at least 10000 nM, respectively.

As for `O=C(O)C1(NS(=O)(=O)c2ccc(-c3cc(C(F)(F)F)on3)o2)C2CCCc3ccccc3C21` (stereo not drawn) [Example 2-373], the IC50 in test [1] was at least 1000 nM; in test [2] it was at least 1000 nM; in test [3], at least 10000 nM.

`Cc1cc(-c2ccc(S(=O)(=O)N[C@@]3(C(=O)O)C(C)[C@@H]3c3ccccc3)s2)no1` (stereo partly drawn) [Example 2-374]: the results for the IC50 in test [1], in test [2] and in test [3] were below 100 nM, below 100 nM and below 1000 nM, respectively.

In the case of `Cc1cc(-c2ccc(S(=O)(=O)NC3(C(=O)O)C4CCCc5ccccc5C43)s2)no1` (stereo not drawn) [Example 2-375], the IC50 in test [1] was below 100 nM; in test [2], below 100 nM; in test [3], below 1000 nM.

Take `CC(=O)NCC1(c2ccccc2)CC1(NS(=O)(=O)c1ccc(-c2ccc(Cl)cc2)s1)C(=O)O` (stereo not drawn) [Example 2-376]: the IC50 in test [1] is below 1000 nM; in test [2] it was below 1000 nM; in test [3], at least 10000 nM.

For the compound `CCCC(=O)NCC1(c2ccccc2)CC1(NS(=O)(=O)c1ccc(-c2ccc(Cl)cc2)s1)C(=O)O` (stereo not drawn) [Example 2-377], the IC50 is below 1000 nM in test [1], below 1000 nM in test [2] and at least 1000 nM in test [3].

Take `CN(C)C(=O)NCC1(c2ccccc2)CC1(NS(=O)(=O)c1ccc(-c2ccc(Cl)cc2)s1)C(=O)O` (stereo not drawn) [Example 2-378]: the IC50 in test [1] is below 1000 nM; in test [2], below 1000 nM; in test [3], at least 1000 nM.

For the compound `O=C(NCC1(c2ccccc2)CC1(NS(=O)(=O)c1ccc(-c2ccc(Cl)cc2)s1)C(=O)O)C1CC1` (stereo not drawn) [Example 2-379], the IC50 in test [1] was below 1000 nM; in test [2] it was below 1000 nM; in test [3] it was at least 1000 nM.

Consider `O=C(NCC1(c2ccccc2)CC1(NS(=O)(=O)c1ccc(-c2ccc(Cl)cc2)s1)C(=O)O)C1CCCCC1` (stereo not drawn) [Example 2-380], for which the IC50 in test [1] is below 1000 nM; in test [2] it was below 1000 nM; in test [3], at least 10000 nM.

On to `O=C(NCC1(c2ccccc2)CC1(NS(=O)(=O)c1ccc(-c2ccc(Cl)cc2)s1)C(=O)O)N1CCOCC1` (stereo not drawn) [Example 2-381], for which the results for the IC50 in test [1], in test [2] and in test [3] were below 1000 nM, below 1000 nM and at least 10000 nM, respectively.

Regarding `C[C@]1(c2ccccc2)C[C@@]1(NS(=O)(=O)c1ccc(-c2cc(C(F)F)on2)s1)C(=O)O` [Example 2-382], the IC50 in test [1] is below 100 nM; in test [2], below 1000 nM; in test [3] it was below 1000 nM.

On to `O=C(O)C1(NS(=O)(=O)c2ccc(-c3cc(C(F)F)on3)s2)C2CCCc3ccccc3C21` (stereo not drawn) [Example 2-383], for which the IC50 in test [1] was below 100 nM; in test [2], below 100 nM; in test [3] it was below 1000 nM.

With `CCOC(=O)NCC1(c2ccccc2)CC1(NS(=O)(=O)c1ccc(-c2ccc(Cl)cc2)s1)C(=O)O` (stereo not drawn) [Example 2-384], the IC50 in test [1] is below 1000 nM; in test [2], below 100 nM; in test [3], at least 10000 nM.

For `O=C(NCC1(c2ccccc2)CC1(NS(=O)(=O)c1ccc(-c2ccc(Cl)cc2)s1)C(=O)O)[C@@H]1CCCO1` (stereo partly drawn) [Example 2-385], the IC50 is below 1000 nM in test [1], below 1000 nM in test [2] and at least 10000 nM in test [3].

As to `COCC1(c2ccccc2)CC1(NS(=O)(=O)c1ccc(-c2ccc(Cl)cc2)s1)C(=O)O` (stereo not drawn) [Example 2-386], the IC50 was below 1000 nM in test [1], below 1000 nM in test [2] and at least 1000 nM in test [3].

For the compound `Cn1cc(-c2ccc(S(=O)(=O)N[C@@]3(C(=O)O)C[C@@H]3c3ccccc3)s2)cn1` [Example 2-387], the values for the IC50 in test [1], in test [2] and in test [3] were at least 1000 nM, below 1000 nM and at least 10000 nM, respectively.

Take `O=C(O)[C@]1(NS(=O)(=O)c2ccc(-c3ccc([N+](=O)[O-])cc3)s2)C[C@@H]1c1ccccc1` [Example 2-388]: the IC50 in test [1] was below 1000 nM; in test [2], below 1000 nM; in test [3], at least 1000 nM.

As to `O=C(O)C1(NS(=O)(=O)c2ccc(-c3ccc(Cl)cc3)s2)C2CCNc3ccccc3C21` (stereo not drawn) [Example 2-389], the IC50 in test [1] was below 100 nM; in test [2], below 100 nM; in test [3], at least 1000 nM.

In the case of `O=C(NO)C1(NS(=O)(=O)c2ccc(OCc3ccc(Cl)cc3Cl)cc2)C2CCCc3ccccc3C21` (stereo not drawn) [Example 2-390], the values for the IC50 in test [1], in test [2] and in test [3] were below 1000 nM, at least 1000 nM and at least 10000 nM, respectively.

With `O=C(NO)C1(NS(=O)(=O)c2ccc(-c3ccc(Cl)cc3)s2)C2CCCc3ccccc3C21` (stereo not drawn) [Example 2-391], the IC50 in test [1] is at least 1000 nM; in test [2], below 1000 nM; in test [3] it was at least 10000 nM.

Regarding `CC(C)NCC1(c2ccccc2)CC1(NS(=O)(=O)c1ccc(-c2ccc(Cl)cc2)s1)C(=O)O` (stereo not drawn) [Example 2-392], the values for the IC50 in test [1], in test [2] and in test [3] were at least 1000 nM, at least 1000 nM and at least 10000 nM, respectively.

As to `O=C(O)C1(NS(=O)(=O)c2ccc(-c3ccc(Cl)cc3)s2)CC1(CNCc1nccs1)c1ccccc1` (stereo not drawn) [Example 2-393], the IC50 in test [1] is below 1000 nM; in test [2], below 100 nM; in test [3], at least 1000 nM.

Consider `O=C(NCC1(c2ccccc2)CC1(NS(=O)(=O)c1ccc(-c2ccc(Cl)cc2)s1)C(=O)O)c1cccnc1` (stereo not drawn) [Example 2-394], for which the IC50 in test [1] is below 1000 nM; in test [2], below 100 nM; in test [3], at least 1000 nM.

In the case of `O=C(CCO)NCC1(c2ccccc2)CC1(NS(=O)(=O)c1ccc(-c2ccc(Cl)cc2)s1)C(=O)O` (stereo not drawn) [Example 2-395], the values for the IC50 in test [1], in test [2] and in test [3] were below 1000 nM, below 1000 nM and at least 10000 nM, respectively.

In the case of `CCNC(=O)NCC1(c2ccccc2)CC1(NS(=O)(=O)c1ccc(-c2ccc(Cl)cc2)s1)C(=O)O` (stereo not drawn) [Example 2-396], the IC50 in test [1] was below 1000 nM; in test [2], below 1000 nM; in test [3], at least 10000 nM.

For `CC(C)C(=O)NCC1(c2ccccc2)CC1(NS(=O)(=O)c1ccc(-c2ccc(Cl)cc2)s1)C(=O)O` (stereo not drawn) [Example 2-397], the IC50 in test [1] is below 1000 nM; in test [2] it was below 1000 nM; in test [3], at least 10000 nM.

As for `COCC(=O)NCC1(c2ccccc2)CC1(NS(=O)(=O)c1ccc(-c2ccc(Cl)cc2)s1)C(=O)O` (stereo not drawn) [Example 2-398], the 50% inhibitory concentration (IC50) in test [1] was below 1000 nM; in test [2], below 1000 nM; in test [3] it was at least 10000 nM.

Turning to `O=C(CO)NCC1(c2ccccc2)CC1(NS(=O)(=O)c1ccc(-c2ccc(Cl)cc2)s1)C(=O)O` (stereo not drawn) [Example 2-399], the figures for the IC50 in test [1], in test [2] and in test [3] were below 1000 nM, below 1000 nM and at least 1000 nM, respectively.

With `O=C1COCCN1CC1(c2ccccc2)CC1(NS(=O)(=O)c1ccc(-c2ccc(Cl)cc2)s1)C(=O)O` (stereo not drawn) [Example 2-400], the IC50 in test [1] was at least 1000 nM; in test [2] it was below 1000 nM; in test [3], at least 1000 nM.

These data come from patent US20080261994A1, “CYCLOPROPANE COMPOUNDS AND PHARMACEUTICAL USE THEREOF” (Japan Tobacco Inc., priority 2003, published 2008).
